Test results published in patent US8410153B2, “Naphthalene isoxazoline invertebrate pest control agents” (E.I. du Pont de Nemours and Company, priority 2007, dated 2013).

Experiments:
Format in all cases: in vivo
[1] = system: fall armyworm (Spodoptera frugiperda); test: Test B: control of fall armyworm on corn (maize) plant, foliar spray; settings: sprayed at 50 ppm
Method in brief: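 4-5-day-old corn plants pre-infested with 10-15 1-day-old larvae on insect diet, then sprayed with compound at 50 ppm in 10% acetone/90% water with 300 ppm surfactant, three replicates. Held 6 days at 25° C, 70% RH; feeding damage assessed visually and mortality rated.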

[2] = system: western flower thrips (Frankliniella occidentalis); test: Test E: control of western flower thrips on Soleil bean plant, contact and/or systemic; settings: held 6 days
Method in brief: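 5–7-day-old Soleil bean plants were sprayed at 250 or 50 ppm in 10% acetone/90% water with 300 ppm X-77 surfactant, three replicates. After drying 1 h, 22–27 adult thrips were added per unit. Mortality and plant damage were rated after 6 days at 25 °C and 45–55% RH.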

[3] = system: diamondback moth (Plutella xylostella); test: Test A: control of diamondback moth on radish plant, foliar spray; settings: sprayed at 50 ppm, held 6 days
Method in brief: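 Radish plants 12–14 days old, pre-infested with about 50 neonate larvae, sprayed at 50 ppm in 10% acetone/water with 300 ppm X-77 surfactant; three replicates. After 6 days at 25° C and 70% RH, feeding damage was scored visually and mortality counted.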

Measured: levels of control efficacy (20% or less feeding damage or 80% or more mortality)

CCNC(=O)CNC(=O)c1ccc(C2=NOC(c3cc(C(F)(F)F)cc(C(F)(F)F)c3)(C(F)(F)F)C2)c2ccccc12 (centres unmarked) [Compound 100]
very good to excellent: [1] | [2]; sprayed at 50 ppm | [3]

CSCCNC(=O)c1ccc(C2=NOC(c3cc(Br)cc(C(F)(F)F)c3)(C(F)(F)F)C2)c2ccccc12 (racemic) [Compound 50]
very good to excellent: [1] | [2]; sprayed at 50 ppm | [2]; sprayed at 250 ppm | [3]

CCCNC(=O)CNC(=O)c1ccc(C2=NOC(c3cc(Cl)cc(C(F)(F)F)c3)(C(F)(F)F)C2)c2ccccc12 (centres unmarked) [Compound 117]
very good to excellent: [1] | [2]; sprayed at 50 ppm | [2]; sprayed at 250 ppm | [3]

CCSCCCNC(=O)c1ccc(C2=NOC(c3cccc(C(F)(F)F)c3)(C(F)(F)F)C2)c2ccccc12 (racemic) [Compound 48]
very good to excellent: [1] | [2]; sprayed at 250 ppm | [3]

CC(NC(=O)c1ccc(C2=NOC(c3cc(Cl)cc(Cl)c3)(C(F)(F)F)C2)c2ccccc12)C(=O)NC(C)C(F)(F)F (mixture of isomers) [Compound 123]
very good to excellent: [1] | [2]; sprayed at 50 ppm | [2]; sprayed at 250 ppm | [3]

CSCCNC(=O)c1ccc(C2=NOC(c3cc(Br)cc(Br)c3)(C(F)(F)F)C2)c2ccccc12 (centres unmarked) [Compound 21]
very good to excellent: [1] | [2]; sprayed at 50 ppm | [2]; sprayed at 250 ppm | [3]

COCCNC(=O)c1ccc(C2=NOC(c3cc(Cl)cc(Cl)c3)(C(F)(F)F)C2)c2ccccc12 (centres unmarked) [Compound 28]
very good to excellent: [1] | [2]; sprayed at 50 ppm | [2]; sprayed at 250 ppm | [3]

CC(C)CNC(=O)CNC(=O)c1ccc(C2=NOC(c3cc(Cl)cc(Cl)c3)(C(F)(F)F)C2)c2ccccc12 (centres unmarked) [Compound 6]
very good to excellent: [1] | [2]; sprayed at 50 ppm | [2]; sprayed at 250 ppm | [3]

CNC(=O)C(C)NC(=O)c1ccc(C2=NOC(c3cc(F)cc(C(F)(F)F)c3)(C(F)(F)F)C2)c2ccccc12 (mixture of isomers) [Compound 138]
very good to excellent: [1] | [2]; sprayed at 50 ppm | [3]

CC(C)CNC(=O)C(C)NC(=O)c1ccc(C2=NOC(c3cc(C(F)(F)F)cc(C(F)(F)F)c3)(C(F)(F)F)C2)c2ccccc12 (centres unmarked) [Compound 90]
very good to excellent: [1] | [2]; sprayed at 50 ppm | [3]

CC[S+]([O-])CCNC(=O)c1ccc(C2=NOC(c3cc(C(F)(F)F)cc(C(F)(F)F)c3)(C(F)(F)F)C2)c2ccccc12 (centres unmarked) [Compound 98]
very good to excellent: [1] | [2]; sprayed at 50 ppm | [3]

CC(O)CNC(=O)c1ccc(C2=NOC(c3cc(C(F)(F)F)cc(C(F)(F)F)c3)(C(F)(F)F)C2)c2ccccc12 (centres unmarked) [Compound 67]
very good to excellent: [1] | [2]; sprayed at 50 ppm | [2]; sprayed at 250 ppm | [3]

CSCCNC(=O)c1ccc(C2=NOC(c3cc(F)cc(C(F)(F)F)c3)(C(F)(F)F)C2)c2ccccc12 (racemic) [Compound 132]
very good to excellent: [1] | [2]; sprayed at 50 ppm | [2]; sprayed at 250 ppm | [3]

CC(C)CNC(=O)C(C)NC(=O)c1ccc(C2=NOC(c3cc(C(F)(F)F)cc(C(F)(F)F)c3)(C(F)(F)F)C2)c2ccccc12 (mixture of isomers) [Compound 93]
very good to excellent: [1] | [2]; sprayed at 50 ppm | [3]

CSCCNC(=O)c1ccc(C2=NOC(c3cccc(C(F)(F)F)c3)(C(F)(F)F)C2)c2ccccc12 (racemic) [Compound 34]
very good to excellent: [1] | [2]; sprayed at 50 ppm | [2]; sprayed at 250 ppm | [3]

CNC(=O)C(C)NC(=O)c1ccc(C2=NOC(c3cc(C(F)(F)F)cc(C(F)(F)F)c3)(C(F)(F)F)C2)c2ccccc12 (centres unmarked) [Compound 86]
very good to excellent: [1] | [2]; sprayed at 50 ppm | [2]; sprayed at 250 ppm | [3]

CC(C)CNC(=O)CNC(=O)c1ccc(C2=NOC(c3cc(Cl)cc(C(F)(F)F)c3)(C(F)(F)F)C2)c2ccccc12 (centres unmarked) [Compound 118]
very good to excellent: [1] | [2]; sprayed at 250 ppm | [3]

O=C(CNC(=O)c1ccc(C2=NOC(c3cccc(C(F)(F)F)c3)(C(F)(F)F)C2)c2ccccc12)NCC(F)(F)F (racemic) [Compound 35]
very good to excellent: [1] | [2]; sprayed at 250 ppm | [3]

CC(NC(=O)c1ccc(C2=NOC(c3cc(Cl)cc(Cl)c3)(C(F)(F)F)C2)c2ccccc12)C(=O)NCC(F)(F)F (mixture of isomers) [Compound 16]
very good to excellent: [1] | [2]; sprayed at 50 ppm | [2]; sprayed at 250 ppm | [3]

CCCNC(=O)CNC(=O)c1ccc(C2=NOC(c3cc(C(F)(F)F)cc(C(F)(F)F)c3)(C(F)(F)F)C2)c2ccccc12 (centres unmarked) [Compound 101]
very good to excellent: [1] | [2]; sprayed at 50 ppm | [3]

CC(NC(=O)c1ccc(C2=NOC(c3cc(C(F)(F)F)cc(C(F)(F)F)c3)(C(F)(F)F)C2)c2ccccc12)C(=O)NCC(C)(C)C (mixture of isomers) [Compound 124]
very good to excellent: [1] | [2]; sprayed at 250 ppm | [3]
